Like-named read-outs stand apart in the source and are kept apart here.
Legend:
[1] = statement of the material safety data sheet; cited from earlier work
[2] = Skin sensitization test according to Local Lymph Node Assay (LLNA) method, Stimulation Index (SI); details: LLNA method (OECD test guideline 429), SI less than 3 = no skin sensitization problem
[3] = in vivo

Row | Compound | SI value [2] | other results
1 | C=CC(=O)OCC(CC)(COC(=O)C=C)COC(=O)C=C [Trimethylol propane triacrylate (M-309), Trimethylol propane triacrylate] |  | skin sensitization as mentioned in MSDS [1]: Toagosei Company, Limited, skin sensitization causing
2 | C=C(C)C(=O)OCCCCOC(=O)C(=C)C [1,4-butane diol dimethacrylate] | 2.6): | 
3 | C=CC(=O)OCC(CC)(COC(=O)C=C)COC(=O)C=C [Trimethylol propane triacrylate (SR-350), Trimethylol propane triacrylate] | 1.9): | 
4 | Diacrylate of caprolactone-modified hydroxy pivalic acid neopentyl glyco | manufactured by Nippon Kayaku Co., Ltd., SI Value = 0.9): | 
5 | Polypropylene glycol (n = 9) dimethacrylate |  | SI value [3]: 1.3):

From US8926083B2, “Polymerizable ink composition, ink cartridge, and inkjet printer” (Ricoh Company, Ltd., priority 2012, dated 2015)
